Source: patent US8703812B2, “Protein synthesis required for long-term memory is induced by PKC activation on days preceding associative learning” (Blanchette Rockefeller Neurosciences Institute, priority 2005, dated 2014)

What was measured:
[1] = tested on: PKC-α; conditions: 20 μM-5 QμM Lactacysteine; cited from earlier work
[2] = tested on: Hermissenda Crassicornis; test: Pavlovian conditioning of Hermissenda (retention of conditioned response); assay type: in vivo; conditions: for effect on bryostatin memory enhancement: 6 TE with bryostatin; for effect on long-term retention: anisomycin 1 μg/ml for four hours post-training (2 TE) after three-day bryostatin treatment
Method: Bryostatin exposure—Specimens of Hermissenda Crassicornis were maintained in artificial sea water (ASW) at 15° for three days in perforated 50-ml conical centrifuge tubes before starting experiments. Bryostatin, purified from the marine bryozoan Bugula neritina, was dissolved in EtOH and diluted to its final concentration in ASW. […] For selected experiments lactacysteine (10 μM) or anisomycin was added to the ASW.
Bryostatin effects on Hermissenda behavior and biochemistry were produced by adding the drug to the bathing medium within an 8 cm long, 1 cm diameter test tube housing each individual animal.
Pavlovian conditioning of Hermissenda involves repeated pairings of a neutral stimulus, light, with an unconditioned stimulus, orbital shaking. (See, Lederhendler et al. (24) and Epstein et al. (6)). A rotation/shaking stimulus excites the statocyst hair cells and thereby elicits an unconditioned response: a brisk contraction of the muscular undersurface called a foot, accompanied by adherence or “clinging” to the surface that supports the foot. Before conditioning, light elicits a weakly positive phototaxis accompanied by lengthening of the foot. After sufficient light-rotation pairings, light no longer elicits phototaxis, but instead elicits a new response (24): the “clinging” and foot shortening previously elicited only by the unconditional stimulus (FIG. 1). Thus, the meaning of the unconditioned stimulus, rotation or orbital shaking, has been transferred to the conditioned stimulus and is manifested by a light-elicited foot contraction—a negative change of foot length. This conditioned response to light can last for weeks, is not produced by randomized light and rotation, is stimulus-specific, and shares the other defining characteristics of mammalian Pavlovian Conditioning.
Pavlovian conditioning of Hermissenda has well-defined training parameters that produce progressively longer-lasting retention of the learned conditioned response. Two training events (2 TE) of paired light and orbital shaking (see “Methods”), for example, induce a learned conditioned response (light-elicited foot contraction or shortening) that persists without drug treatment for approximately 7 minutes. Four to six training events (4-6 TE) induce a conditioned response that persists up to several hours, but disappears approximately by 1 day after training. Nine TE produces long-term associative memory lasting many days and often up to two weeks.

[3] = tested on: calexcitin; test: Calexcitin immunostaining in B-photoreceptors; assay type: in vivo, Hermissenda
Method: Following experimental treatments and testing, animals were rapidly decapitated, the central nervous systems (CNS) removed and then fixed in 4% para-formaldehyde in 20 mM Tris-buffered (pH 8) natural seawater (NSW; 0.2 μm micropore-filtered). The CNSs were then embedded in polyester wax (20), sectioned (6 μm) and immunostained using a biotinylated secondary antibody coupled to avidin-bound microperoxidase (ABC method, Vector), Aminoethylcarbazole (AEC) was used as the chromogen. The primary polyclonal antibody (designated 25U2) was raised in rabbits from the full length calexcitin protein extracted from squid optic lobes. Gray-scale intensity measures were done from digital photomicrographs on circumscribed cytoplasmic areas of the B-photoreceptors minus the same background area (non-staining neuropile).

[4] = tested on: Rat hippocampal H19-7/IGF-IR cells; test: Protein synthesis by [35S]Methionine incorporation; assay type: cell-based; conditions: PKC inhibitor Ro-32 also present
Method: FIG. 17 depicts the effects of bryostatin on protein synthesis. Rat IGF-IR cells were incubated for 30 minutes with 0.28 nM bryostatin for incubation times ranging from 1 to 79 hours. [^35S]Methionine (9.1 μCi) was then added to the medium followed by analysis of radiolabel.
Rat hippocampal H19-7/IGF-IR cells (ATCC) were plated onto poly-L-lysine coated plates and grown at 35° in DMEM/10% FCS for several days until approx. 50% coverage was obtained. The cells were then induced to differentiate into a neuronal phenotype by replacing the medium with 5 ml N2 medium containing 10 ng/ml basic fibroblast growth factor and grown in T-25 flasks at 39° C. (26). Various concentrations of bryostatin (0.01-1.0 nM) were then added in 10 μl aqueous solution. After a specified interval, the medium was removed and the cells were washed with PBS, removed by gentle scraping, and collected by centrifugation at 1000 rpm for 5 min.
In fact, we found here that a single 30-minute exposure to 0.28 nM bryostatin increased overall protein synthesis (FIG. 17), measured by incorporation of ^35-S Methionine in the last ½ hour before collecting the neurons, by 20% within 24 h, increasing to 60% by 79 hours after the bryostatin exposure.

[5] = tested on: sAPP secretion; conditions: cited from earlier work
[6] = tested on: diacylglycerol-protein kinase C activation; conditions: aorta of diabetic rats; cultured rat smooth muscle cells, elevated glucose; cited from earlier work
[7] = vitamin E 2000 IU/day; cited from earlier work
[8] = tested on: PKC; test: Protein kinase C assay (histone phosphorylation) in Hermissenda nervous systems; assay type: in vivo; conditions: anisomycin (1.0 ng/ml) with each bryostatin (0.25 ng/ml) exposure on three successive days
Method: Bryostatin exposure—Specimens of Hermissenda Crassicornis were maintained in artificial sea water (ASW) at 15° for three days in perforated 50-ml conical centrifuge tubes before starting experiments. Bryostatin, purified from the marine bryozoan Bugula neritina, was dissolved in EtOH and diluted to its final concentration in ASW. Animals were incubated with bryostatin in ASW for 4 hr, then rinsed with normal ASW. For selected experiments lactacysteine (10 μM) or anisomycin was added to the ASW.
Cells were homogenized by sonication (5 sec, 25 W) in 100 μl of 10 mM Tris-HCl pH 7.4 buffer containing 1 mM EGTA, 1 mM PMSF, and 50 mM NaF. Homogenate was transferred to a polyallomer centrifuge tube and was centrifuged at 100,000×g for 10 min at 4°. The supernatant was removed and immediately frozen on dry ice. The particulate fraction was resuspended by sonication in 100 μl of the same buffer and stored at −80°. To measure PKC, 10 μl of cytosol or particulate fraction was incubated for 15 min at 37° in the presence of 10 μM histones, 4.89 mM CaCl2, 1.2 μg/μl phosphatidyl-L-serine, 0.18 μg/μl 1,2-dioctanoyl-sn-glycerol, 10 mM MgCl2, 20 mM HEPES (pH 7.4), 0-8 mM EDTA, 4 mM EGTA, 4% glycerol, 8 μg/ml aprotinin, 8 μg/ml leupeptin, and 2 mM benzamidine. 0.5 μCi [γ^32P]ATP was added and ^32P-phosphoprotein formation was measured by adsorption onto phosphocellulose as described previously (25). This assay was used with slight adjustments for either Hermissenda nervous system homogenates or cultured mammalian neuron homogenates
Intact Hermissenda were exposed for 4 hour intervals to bryostatin (0.28 nM) on successive days under conditions described (“Behavioral Pharmacology”). Histone phosphorylation (See “Methods”) in isolated circumesophageal nervous systems was then measured in the cytosol fraction. […] (FIG. 12, 13). […] After an initial activation (via translocation), this bryostatin effect is most likely due to increased synthesis of PKC, consistent with the increased levels of calexcitin induced by bryostatin, but not directly correlated with repeated bryostatin exposure.

CC(=O)N[C@@H](CSC(=O)[C@]1([C@@H](O)C(C)C)NC(=O)[C@H](C)[C@@H]1O)C(=O)O [Lactacysteine]
degradation of PKC-α [1]: largely prevented | acquisition or retention of behavioral training ([2]; lactacysteine only 10 μM 4 h, 2-paired TEs 24 hrs later): no acquisition or retention of behavioral training | duration of memory after single bryostatin exposure followed by 2 TE ([2]; with lactacysteine): many days

CN(C)C[C@H]1CCn2c(c(C3=C(c4cn(C)c5ccccc45)C(=O)NC3=O)c3ccccc32)C1 [Ro-32]
effect on bryostatin memory enhancement [2]: blocked | effect on 6 TE plus bryostatin conditioning ([2]; Ro-32 applied pre-training (during dark adaptation)): blocked | effect on memory consolidation ([2]; Ro-32 during the training plus bryostatin): did prevent memory consolidation | effect on long-term memory induction ([2]; Ro-32 immediately after bryostatin plus training): did not prevent long-term memory induction | effect on learning-specific calexcitin increases in Type B cell ([3]; Ro-32): prevented both learning and learning-specific calexcitin increases | effect on bryostatin-induced increase of protein synthesis [4]: partially blocked | effect on bryostatin-induced increase of protein synthesis ([4]; listed as Ro-32-0432): increasing significantly less

benzolactam
sAPP secretion ([5]; benzolactam-treated cells): enhance sAPP secretion over basal levels | concentration giving significant increases of sAPP secretion ([5]; control fibroblasts): 10 µM

vitamin E
diacylglycerol-protein kinase C activation [6]: normalize diacylglycerol-protein kinase C activation | clinical outcome [7]: reduced mortality and morbidity, but did not enhance cognitive abilities

COc1ccc(C[C@H]2NC[C@H](O)[C@H]2OC(C)=O)cc1 [anisomycin]
effect on PKC activity, cytosolic and membrane fractions [8]: markedly reduced the PKC activity | effect on bryostatin memory enhancement [2]: blocked | effect on memory retention produced by 9 TE ([2]; 4 hour anisomycin treatment, no bryostatin): eliminated all memory retention | effect on long-term retention [2]: did not prevent memory retention | effect on long-term retention ([2]; listed as Anisomycin): did not prevent long-term retention | effect on retention produced by single 4-hour bryostatin plus 2 TE ([2]; anisomycin 1.0 μg/ml immediately post-training, tested after 4 h): showed no CR | effect on memory formation ([2]; anisomycin after training with and without bryostatin): completely blocked memory formation | effect on long-term memory ([2]; anisomycin during training with and without bryostatin): did not prevent long-term memory | effect on long-term memory ([2]; anisomycin with each of three successive daily 4 hour bryostatin exposures, 2 TE one day after): long-term memory was eliminated | effect on calexcitin level ([3]; anisomycin immediately after 2-paired TEs following 3 days of 4-hr bryostatin): did not reduce this calexcitin level

CN[C@@H]1C[C@H]2O[C@@](C)([C@@H]1OC)n1c3ccccc3c3c4c(c5c6ccccc6n2c5c31)C(=O)NC4 [staurosporine]
effect on benzolactam-induced sAPP secretion ([5]; control and AD fibroblasts): eliminated the effects of benzolactam
